ChEMBL document CHEMBL1201862, “PubChem BioAssay data set” (2004)
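All cell lines were grown in 96-well plates and treated with compound for 48 hours. At the GI50, growth is halved.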 Calls of active or inactive are those of the source. Rule as the data show it: active = GI50 up to about 1.1 µM and inactive = higher.

Assays:
Experiment in all cases: DTP human tumour cell line panel, 48 h
U-251 = test system: U-251
OVCAR-8 = test system: OVCAR-8
Hs-578T = test system: Hs-578T
UO-31 = test system: UO-31
K562 = test system: K562
SNB-19 = test system: SNB-19
786-0 = test system: 786-0
A498 = test system: A498
CCRF-CEM = test system: CCRF-CEM
IGROV-1 = test system: IGROV-1
SK-OV-3 = test system: SK-OV-3
TK-10 = test system: TK-10
UACC-257 = test system: UACC-257
SK-MEL-28 = test system: SK-MEL-28
SK-MEL-5 = test system: SK-MEL-5
UACC-62 = test system: UACC-62
LOX IMVI = test system: LOX IMVI
EKVX = test system: EKVX
OVCAR-4 = test system: OVCAR-4

Measured: GI50

COc1c2cc(C(C)(C)C)cc1CSCc1cc(C(C)(C)C)cc(c1OC)CCCCC2
inactive: U-251 27 µM | OVCAR-8 28.2 µM | Hs-578T > 50 µM | UO-31 20.7 µM | K562 > 50 µM | SNB-19 20.2 µM | 786-0 > 50 µM | A498 38.6 µM | CCRF-CEM 33.1 µM | IGROV-1 21.4 µM | SK-OV-3 > 50 µM | TK-10 31.9 µM | UACC-257 13.3 µM | SK-MEL-28 26.5 µM | SK-MEL-5 24.1 µM | UACC-62 29.7 µM

Cc1c(C)c(C)c(-n2[nH]c(=O)n(C)c2=O)c(C)c1C
inactive: U-251 > 100 µM | OVCAR-8 > 100 µM | LOX IMVI > 100 µM | Hs-578T > 100 µM | UO-31 52.5 µM | K562 > 100 µM | SNB-19 > 100 µM | 786-0 > 100 µM | A498 > 100 µM | CCRF-CEM > 100 µM | IGROV-1 > 100 µM | EKVX > 100 µM | SK-OV-3 > 100 µM | TK-10 > 100 µM | UACC-257 > 100 µM | SK-MEL-28 > 100 µM | SK-MEL-5 > 100 µM | UACC-62 > 100 µM

O=[N+]([O-])c1ccc2nc3n(c2c1)C(c1c(F)cccc1F)SC3 (stereo not drawn)
inactive: U-251 > 100 µM | OVCAR-8 > 10 µM | LOX IMVI > 100 µM | Hs-578T > 100 µM | K562 > 10 µM | SNB-19 > 100 µM | 786-0 > 100 µM | A498 > 100 µM | CCRF-CEM > 100 µM | IGROV-1 > 100 µM | EKVX > 100 µM | SK-OV-3 > 100 µM | TK-10 > 100 µM | UACC-257 > 100 µM | SK-MEL-28 > 100 µM | SK-MEL-5 > 10 µM

Cc1[nH]c2ccccc2c1-c1cc(-c2cc(-c3c(C)[nH]c4ccccc34)nc(N)n2)nc(N)n1
inactive: U-251 > 100 µM | OVCAR-8 > 100 µM | LOX IMVI > 100 µM | Hs-578T > 100 µM | UO-31 14.9 µM | OVCAR-4 > 100 µM | K562 > 100 µM | SNB-19 > 100 µM | 786-0 > 100 µM | A498 > 100 µM | IGROV-1 > 100 µM | EKVX > 100 µM | SK-OV-3 > 100 µM | TK-10 > 100 µM | UACC-257 > 100 µM | SK-MEL-28 > 100 µM | SK-MEL-5 > 100 µM | UACC-62 > 100 µM
